Assay results reported in article PMC11378028 (RSC Advances, 2024).
In brackets after ≈: the same amount, converted by molar mass.

What was measured:
[1] = test system: S. aureus ATCC 43300 (MRSA); test: MIC, broth microdilution; type: cell-based; conditions: Staphylococcus aureus, ATCC43300|MRSA, read-out: MIC S. aureus ATCC 43300 (MRSA)
E. coli topoisomerase IV = E. coli topoisomerase IV (Escherichia coli, UniProt P20083); test: topoisomerase IV relaxation plate assay; type: biochemical; conditions: for remaining activity at 10 µM / remaining activity at 1 µM: read-out: RA (residual activity) E. coli topo IV
K. aerogenes ATCC 13408 = test: MIC, broth microdilution; type: cell-based; conditions: Klebsiella aerogenes, ATCC13408, read-out: MIC K. aerogenes ATCC 13408
E. coli DNA gyrase = E. coli DNA gyrase (Escherichia coli, UniProt P0AES6); test: DNA gyrase supercoiling plate assay; type: biochemical; conditions: IC50 E. coli gyrase, supercoiling assay
A. baumannii ATCC 17978 = test: MIC, broth microdilution; type: cell-based; conditions: Acinetobacter baumannii, ATCC17978, read-out: MIC A. baumannii ATCC 17978
A. baumannii ATCC 19606 = test: MIC, broth microdilution; type: cell-based; conditions: Acinetobacter baumannii, ATCC19606, read-out: MIC A. baumannii ATCC 19606
[2] = test system: S. aureus ATCC 700699 (VISA); test: MIC, broth microdilution; type: cell-based; conditions: Staphylococcus aureus, ATCC700699|VISA, read-out: MIC S. aureus ATCC 700699 (VISA)
P. aeruginosa ATCC 27853 = test: MIC, broth microdilution; type: cell-based; conditions: Pseudomonas aeruginosa, ATCC27853, read-out: MIC P. aeruginosa ATCC 27853
[3] = test system: K. pneumoniae ATCC 700603; test: MIC, broth microdilution; type: cell-based; conditions: Klebsiella pneumoniae, ATCC700603, read-out: MIC K. pneumoniae ATCC 700603
K. pneumoniae ATCC 10031 = test: MIC, broth microdilution; type: cell-based; conditions: Klebsiella pneumoniae, ATCC10031, read-out: MIC K. pneumoniae ATCC 10031
S. aureus ATCC 29213 = test: MIC, broth microdilution; type: cell-based, Staphylococcus aureus; conditions: Staphylococcus aureus, ATCC29213, read-out: MIC S. aureus ATCC 29213, broth microdilution
[4] = test system: E. spp. cloacae ATCC 13047; test: MIC, broth microdilution; type: cell-based; conditions: read-out: MIC E. spp. cloacae ATCC 13047
E. coli ATCC 25922 = test: MIC, broth microdilution; type: cell-based; conditions: Escherichia coli, ATCC25922, read-out: MIC E. coli ATCC 25922
E. faecalis ATCC 29212 = test: MIC, broth microdilution; type: cell-based; conditions: Enterococcus faecalis, ATCC29212, read-out: MIC E. faecalis ATCC 29212
[5] = molecular target: S. aureus topoisomerase IV (Staphylococcus aureus, UniProt P0C1S7); test: topoisomerase IV relaxation plate assay; type: biochemical; conditions: for remaining activity at 1 µM: read-out: RA (residual activity) S. aureus topo IV
S. aureus DNA gyrase = S. aureus DNA gyrase (Staphylococcus aureus, UniProt P0A0K8); test: DNA gyrase supercoiling plate assay; type: biochemical; conditions: for remaining activity at 1 µM: read-out: RA (residual activity) S. aureus gyrase
[6] = molecular target: human DNA topoisomerase IIα (Homo sapiens, UniProt P11388); test: human DNA topoisomerase IIα inhibition; type: biochemical; conditions: read-out: RA (residual activity) Human topo IIα
K. pneumoniae SE K14 = test: MIC against fluoroquinolone-resistant clinical isolate; type: cell-based; conditions: Klebsiella pneumoniae, SEK14, read-out: MIC K. pneumoniae SE K14
K. pneumoniae NCTC 13440 = test: as above; type: cell-based; conditions: Klebsiella pneumoniae, NCTC13440, read-out: MIC K. pneumoniae NCTC 13440
MRSA clinical isolate-2 = test: as above; type: cell-based; conditions: Staphylococcus aureus, read-out: MIC MRSA clinical isolate-2
K. pneumoniae SE K13 = test: as above; type: cell-based; conditions: Klebsiella pneumoniae, SEK13, read-out: MIC K. pneumoniae SE K13
K. pneumoniae K9–K25 = test: as above; type: cell-based; conditions: Klebsiella pneumoniae, read-out: MIC K. pneumoniae K9–K25
MRSA clinical isolate-1 = test: as above; type: cell-based; conditions: Staphylococcus aureus, read-out: MIC MRSA clinical isolate-1

E. coli topoisomerase IV, sequence (P20083 whole entry): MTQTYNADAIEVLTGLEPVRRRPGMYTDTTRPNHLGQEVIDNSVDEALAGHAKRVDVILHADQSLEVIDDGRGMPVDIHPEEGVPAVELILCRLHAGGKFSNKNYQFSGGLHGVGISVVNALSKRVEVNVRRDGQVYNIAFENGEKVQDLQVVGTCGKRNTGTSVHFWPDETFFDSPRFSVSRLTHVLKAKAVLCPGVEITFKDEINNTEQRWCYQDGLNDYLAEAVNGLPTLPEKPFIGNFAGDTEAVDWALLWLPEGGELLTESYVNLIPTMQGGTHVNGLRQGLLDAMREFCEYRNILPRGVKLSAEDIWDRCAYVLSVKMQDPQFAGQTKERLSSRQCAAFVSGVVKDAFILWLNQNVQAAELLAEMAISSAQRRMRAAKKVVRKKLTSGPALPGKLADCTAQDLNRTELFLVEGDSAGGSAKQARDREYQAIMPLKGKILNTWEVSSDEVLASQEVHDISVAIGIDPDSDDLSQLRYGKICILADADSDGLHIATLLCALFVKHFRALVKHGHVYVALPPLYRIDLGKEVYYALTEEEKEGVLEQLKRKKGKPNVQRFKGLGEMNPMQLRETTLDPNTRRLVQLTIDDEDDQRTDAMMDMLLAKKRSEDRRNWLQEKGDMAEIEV
E. coli topoisomerase IV, sequence (P0AFI2 whole entry partner): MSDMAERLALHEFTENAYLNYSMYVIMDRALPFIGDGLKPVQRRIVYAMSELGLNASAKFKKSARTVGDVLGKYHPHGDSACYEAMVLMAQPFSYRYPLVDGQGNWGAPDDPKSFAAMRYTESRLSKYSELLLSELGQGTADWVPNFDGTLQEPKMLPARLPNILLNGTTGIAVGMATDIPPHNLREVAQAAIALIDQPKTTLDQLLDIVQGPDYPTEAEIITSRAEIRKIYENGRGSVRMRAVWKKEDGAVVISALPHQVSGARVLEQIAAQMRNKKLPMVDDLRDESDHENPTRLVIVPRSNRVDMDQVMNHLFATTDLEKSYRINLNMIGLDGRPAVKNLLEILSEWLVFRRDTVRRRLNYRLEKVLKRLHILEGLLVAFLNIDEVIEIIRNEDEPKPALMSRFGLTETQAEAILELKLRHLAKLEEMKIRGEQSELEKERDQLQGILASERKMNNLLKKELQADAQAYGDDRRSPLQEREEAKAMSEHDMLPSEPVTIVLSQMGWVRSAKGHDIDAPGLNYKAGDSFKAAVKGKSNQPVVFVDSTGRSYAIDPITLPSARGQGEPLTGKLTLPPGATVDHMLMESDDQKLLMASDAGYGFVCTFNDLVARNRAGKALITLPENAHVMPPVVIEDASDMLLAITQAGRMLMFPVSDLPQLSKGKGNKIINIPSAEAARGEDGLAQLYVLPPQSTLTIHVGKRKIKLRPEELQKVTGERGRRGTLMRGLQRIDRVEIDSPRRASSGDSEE
human DNA topoisomerase IIα, sequence (P11388 whole entry): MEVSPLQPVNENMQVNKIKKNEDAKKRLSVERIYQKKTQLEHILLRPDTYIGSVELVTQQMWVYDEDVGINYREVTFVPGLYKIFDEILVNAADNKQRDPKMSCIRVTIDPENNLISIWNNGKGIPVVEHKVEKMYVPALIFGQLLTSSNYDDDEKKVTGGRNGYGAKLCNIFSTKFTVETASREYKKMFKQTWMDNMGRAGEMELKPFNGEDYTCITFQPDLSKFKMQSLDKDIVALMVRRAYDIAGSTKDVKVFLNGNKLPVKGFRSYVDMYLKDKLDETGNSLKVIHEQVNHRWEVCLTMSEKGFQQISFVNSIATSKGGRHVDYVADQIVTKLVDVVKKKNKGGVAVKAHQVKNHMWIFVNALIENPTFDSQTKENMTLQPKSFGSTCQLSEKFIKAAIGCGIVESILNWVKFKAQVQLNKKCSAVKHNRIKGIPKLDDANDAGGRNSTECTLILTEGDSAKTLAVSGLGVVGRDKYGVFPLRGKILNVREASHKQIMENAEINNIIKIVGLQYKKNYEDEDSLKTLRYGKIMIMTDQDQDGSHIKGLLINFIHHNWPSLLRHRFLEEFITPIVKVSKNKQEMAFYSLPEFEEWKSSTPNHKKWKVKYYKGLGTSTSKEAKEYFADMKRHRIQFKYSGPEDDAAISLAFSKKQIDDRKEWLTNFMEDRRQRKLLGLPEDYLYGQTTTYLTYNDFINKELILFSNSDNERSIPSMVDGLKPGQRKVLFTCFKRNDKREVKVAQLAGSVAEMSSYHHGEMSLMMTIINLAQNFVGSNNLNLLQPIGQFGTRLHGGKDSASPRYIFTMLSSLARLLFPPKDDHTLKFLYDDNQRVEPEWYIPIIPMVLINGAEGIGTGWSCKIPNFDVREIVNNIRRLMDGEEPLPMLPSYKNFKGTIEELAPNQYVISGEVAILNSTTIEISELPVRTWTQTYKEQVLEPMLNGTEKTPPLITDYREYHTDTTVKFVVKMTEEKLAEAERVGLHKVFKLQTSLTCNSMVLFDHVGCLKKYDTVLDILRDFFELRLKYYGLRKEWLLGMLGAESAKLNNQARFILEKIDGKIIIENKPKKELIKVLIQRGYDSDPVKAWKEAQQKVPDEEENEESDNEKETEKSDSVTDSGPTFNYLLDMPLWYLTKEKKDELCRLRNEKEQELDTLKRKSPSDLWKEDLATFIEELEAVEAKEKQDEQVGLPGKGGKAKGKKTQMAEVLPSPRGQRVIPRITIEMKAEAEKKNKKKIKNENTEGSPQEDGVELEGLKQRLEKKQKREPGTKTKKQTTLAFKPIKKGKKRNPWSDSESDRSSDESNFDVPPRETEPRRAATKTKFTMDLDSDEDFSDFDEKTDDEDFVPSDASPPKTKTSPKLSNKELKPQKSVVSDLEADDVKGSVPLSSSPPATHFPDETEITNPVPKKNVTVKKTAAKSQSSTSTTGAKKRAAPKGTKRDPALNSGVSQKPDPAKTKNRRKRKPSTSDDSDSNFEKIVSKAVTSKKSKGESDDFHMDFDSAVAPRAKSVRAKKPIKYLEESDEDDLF
S. aureus DNA gyrase, sequence (P0A0K8 whole entry): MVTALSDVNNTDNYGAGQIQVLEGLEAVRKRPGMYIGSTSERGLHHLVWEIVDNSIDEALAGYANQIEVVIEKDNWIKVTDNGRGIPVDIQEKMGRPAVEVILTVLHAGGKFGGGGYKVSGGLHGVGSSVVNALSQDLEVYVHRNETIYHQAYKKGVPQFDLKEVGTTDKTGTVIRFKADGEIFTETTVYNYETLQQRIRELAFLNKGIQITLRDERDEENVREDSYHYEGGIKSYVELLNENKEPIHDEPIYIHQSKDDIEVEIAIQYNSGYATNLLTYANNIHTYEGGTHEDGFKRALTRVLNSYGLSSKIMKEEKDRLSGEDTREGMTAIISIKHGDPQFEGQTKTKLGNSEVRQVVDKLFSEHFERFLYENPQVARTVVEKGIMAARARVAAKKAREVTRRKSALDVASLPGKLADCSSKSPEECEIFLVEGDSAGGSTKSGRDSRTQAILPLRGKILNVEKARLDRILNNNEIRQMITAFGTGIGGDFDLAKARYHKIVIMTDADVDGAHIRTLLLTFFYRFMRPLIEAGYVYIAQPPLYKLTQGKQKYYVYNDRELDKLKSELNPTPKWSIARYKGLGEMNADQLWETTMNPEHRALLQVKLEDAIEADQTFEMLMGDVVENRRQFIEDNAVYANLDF
S. aureus DNA gyrase, sequence (P20831 whole entry partner): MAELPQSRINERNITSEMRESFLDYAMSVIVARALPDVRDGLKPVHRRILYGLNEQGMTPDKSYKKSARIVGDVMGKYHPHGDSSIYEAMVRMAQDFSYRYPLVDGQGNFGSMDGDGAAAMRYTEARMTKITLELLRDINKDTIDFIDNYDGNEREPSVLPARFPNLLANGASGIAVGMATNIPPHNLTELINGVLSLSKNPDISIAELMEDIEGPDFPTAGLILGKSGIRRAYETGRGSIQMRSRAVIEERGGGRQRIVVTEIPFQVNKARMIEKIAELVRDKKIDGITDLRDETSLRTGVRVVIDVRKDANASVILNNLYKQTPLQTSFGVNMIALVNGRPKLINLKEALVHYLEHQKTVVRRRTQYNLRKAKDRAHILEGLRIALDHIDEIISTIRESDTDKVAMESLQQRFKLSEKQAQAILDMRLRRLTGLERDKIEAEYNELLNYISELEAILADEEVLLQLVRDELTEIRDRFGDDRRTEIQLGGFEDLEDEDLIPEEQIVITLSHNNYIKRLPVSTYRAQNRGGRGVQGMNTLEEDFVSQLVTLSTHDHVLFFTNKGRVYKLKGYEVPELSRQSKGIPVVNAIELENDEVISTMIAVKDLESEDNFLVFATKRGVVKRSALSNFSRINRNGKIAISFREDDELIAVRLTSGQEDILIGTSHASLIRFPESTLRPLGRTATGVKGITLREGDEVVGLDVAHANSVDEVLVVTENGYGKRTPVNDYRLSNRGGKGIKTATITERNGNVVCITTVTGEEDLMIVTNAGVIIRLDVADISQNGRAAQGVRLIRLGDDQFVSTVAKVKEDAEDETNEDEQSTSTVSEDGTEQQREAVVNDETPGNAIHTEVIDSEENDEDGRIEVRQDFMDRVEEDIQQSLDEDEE

SMILES | MIC [1] | IC50 (E. coli topoisomerase IV) | MIC (K. aerogenes ATCC 13408) | IC50 (E. coli DNA gyrase) | MIC (A. baumannii ATCC 17978) | MIC (A. baumannii ATCC 19606) | MIC [2] | MIC (P. aeruginosa ATCC 27853) | MIC [3] | MIC (K. pneumoniae ATCC 10031) | MIC (S. aureus ATCC 29213) | MIC [4] | MIC (E. coli ATCC 25922) | MIC (E. faecalis ATCC 29212) | remaining activity at 1 µM (E. coli topoisomerase IV) | further results
COC(=O)c1ccc(NC(=O)c2[nH]c(C)c(Cl)c2Cl)c(N2CCCC(CN)C2)c1.Cl (stereo not shown) [Compound 19i, (1-(2-(3,4-Dichloro-5-methyl-1H-pyrrole-2-carboxamido)-5-(methoxycarbonyl)phenyl)piperidin-3-yl)methanaminium chloride] | 2 µg/mL | 0.533 µM | > 32 µg/mL | 0.0142 µM | 8 µg/mL | 8 µg/mL | 1 µg/mL | > 32 µg/mL | > 32 µg/mL | 8 µg/mL | 8 µg/mL | > 64 µg/mL | 4 µg/mL | – | – | –
Cc1[nH]c(C(=O)Nc2ccc(C(=O)O)cc2NC2CCNCC2)c(Cl)c1Cl.Cl [Compound 20d, 4-((5-Carboxy-2-(3,4-dichloro-5-methyl-1H-pyrrole-2-carboxamido)phenyl)amino)piperidin-1-ium chloride] | > 64 µg/mL | – | – | – | > 64 µg/mL | – | > 64 µg/mL | > 64 µg/mL | – | > 64 µg/mL | > 64 µg/mL | > 64 µg/mL | > 64 µg/mL | > 64 µg/mL | – | remaining activity at 10 µM (E. coli topoisomerase IV): 89%
COC(=O)c1ccc(NC(=O)c2[nH]c(C)c(Cl)c2Cl)c(N2CCNCC2)c1.Cl [Compound 19a, 4-(2-(3,4-Dichloro-5-methyl-1H-pyrrole-2-carboxamido)-5-(methoxycarbonyl)phenyl)piperazin-1-ium chloride] | – | – | > 32 µg/mL | 0.1 µM | – | 16 µg/mL | – | > 32 µg/mL | > 32 µg/mL | – | > 32 µg/mL | – | > 32 µg/mL | – | 102% | remaining activity at 1 µM [5]: 95%; remaining activity at 1 µM (S. aureus DNA gyrase): 45%
Cc1[nH]c(C(=O)Nc2ccc(C(=O)NCC(=O)O)cc2N2CC[C@H](N)C2)c(Cl)c1Cl [Compound 10b, (S)-1-(5-((Carboxymethyl)carbamoyl)-2-(3,4-dichloro-5-methyl-1H-pyrrole-2-carboxamido)phenyl)pyrrolidin-3-aminium chloride] | – | 0.958 µM | – | 0.0193 µM | – | – | – | – | – | – | – | – | – | – | – | IC50 [5]: 2.56 µM; remaining activity at 10 µM [6]: 82%; IC50 (S. aureus DNA gyrase): 0.112 µM
Cc1[nH]c(C(=O)Nc2ccc(-c3n[nH]c(=O)o3)cc2N2CCOC(C)C2)c(Cl)c1Cl (stereo not shown) [Compound 22f, 3,4-Dichloro-5-methyl-N-(2-(2-methylmorpholino)-4-(5-oxo-4,5-dihydro-1,3,4-oxadiazol-2-yl)phenyl)-1H-pyrrole-2-carboxamide] | > 64 µg/mL | – | – | – | > 64 µg/mL | – | – | > 64 µg/mL | – | > 64 µg/mL | > 64 µg/mL | > 64 µg/mL | > 64 µg/mL | 1 µg/mL (≈ 2.21 µM) | – | remaining activity at 100 µM [6]: 98%
Cc1[nH]c(C(=O)Nc2ccc(-c3n[nH]c(=O)o3)cc2N2CCOCC2)c(Cl)c1Cl [Compound 22e, 3,4-Dichloro-5-methyl-N-(2-morpholino-4-(5-oxo-4,5-dihydro-1,3,4-oxadiazol-2-yl)phenyl)-1H-pyrrole-2-carboxamide] | 0.25 µg/mL (≈ 0.57 µM) | 1.23 µM | – | – | > 64 µg/mL | – | – | > 64 µg/mL | – | > 64 µg/mL | 0.25 µg/mL (≈ 0.57 µM) | > 64 µg/mL | > 64 µg/mL | 0.125 µg/mL (≈ 0.285 µM) | – | remaining activity at 100 µM [6]: 93%; MIC (K. pneumoniae SE K14): > 64 µg/mL; MIC (K. pneumoniae NCTC 13440): > 64 µg/mL; MIC (MRSA clinical isolate-2): 0.5 µg/mL (≈ 1.14 µM); MIC (K. pneumoniae SE K13): > 64 µg/mL; MIC (K. pneumoniae K9–K25): > 64 µg/mL; MIC (MRSA clinical isolate-1): 0.5 µg/mL (≈ 1.14 µM)
Cc1[nH]c(C(=O)Nc2ccc(-c3n[nH]c(=O)o3)cc2OCc2ccccc2)c(Cl)c1Cl [Compound 39, N-(2-(Benzyloxy)-4-(5-oxo-4,5-dihydro-1,3,4-oxadiazol-2-yl)phenyl)-3,4-dichloro-5-methyl-1H-pyrrole-2-carboxamide] | > 32 µg/mL | – | – | – | > 32 µg/mL | – | > 32 µg/mL | > 32 µg/mL | – | > 32 µg/mL | > 32 µg/mL | > 32 µg/mL | > 32 µg/mL | > 32 µg/mL | 101% | remaining activity at 100 µM [6]: 104%
COC(=O)c1ccc(NC(=O)c2[nH]c(C)c(Cl)c2Cl)c(N2CCC[C@H](N)C2)c1.Cl [Compound 19c, (S)-1-(2-(3,4-Dichloro-5-methyl-1H-pyrrole-2-carboxamido)-5-(methoxycarbonyl)phenyl)piperidin-3-aminium chloride] | – | – | > 32 µg/mL | 0.12 µM | – | 16 µg/mL | – | > 32 µg/mL | > 32 µg/mL | 4 µg/mL | 8 µg/mL | – | > 32 µg/mL | – | 79% | remaining activity at 1 µM (S. aureus DNA gyrase): 27%
Cc1[nH]c(C(=O)Nc2ccc(-c3n[nH]c(=O)o3)cc2NC2CCNCC2)c(Cl)c1Cl.Cl [Compound 23d, 4-((2-(3,4-Dichloro-5-methyl-1H-pyrrole-2-carboxamido)-5-(5-oxo-4,5-dihydro-1,3,4-oxadiazol-2-yl)phenyl)amino)piperidin-1-ium chloride] | > 64 µg/mL | 1.26 µM | – | – | > 64 µg/mL | – | > 64 µg/mL | > 64 µg/mL | – | 2 µg/mL | > 64 µg/mL | > 64 µg/mL | > 64 µg/mL | > 64 µg/mL | – | remaining activity at 10 µM [6]: 99%
Cc1[nH]c(C(=O)Nc2ccc(C(=O)O)cc2N2CCN(c3ccccc3)CC2)c(Cl)c1Cl [Compound 18h, 4-(3,4-Dichloro-5-methyl-1H-pyrrole-2-carboxamido)-3-(4-phenylpiperazin-1-yl)benzoic acid] | > 64 µg/mL | – | – | – | > 64 µg/mL | – | > 64 µg/mL | > 64 µg/mL | – | > 64 µg/mL | > 64 µg/mL | > 64 µg/mL | > 64 µg/mL | > 64 µg/mL | – | remaining activity at 10 µM (E. coli topoisomerase IV): 85%
Cc1[nH]c(C(=O)Nc2ccc(C(=O)NCC(=O)O)cc2N2CCN(C(=O)OC(C)(C)C)CC2)c(Cl)c1Cl [Compound 8a, (3-(4-(tert-Butoxycarbonyl)piperazin-1-yl)-4-(3,4-dichloro-5-methyl-1H-pyrrole-2-carboxamido)benzoyl)glycine] | – | – | – | 0.0841 µM | – | – | – | – | – | – | – | – | – | – | 93% | remaining activity at 1 µM [5]: 22%; remaining activity at 1 µM (S. aureus DNA gyrase): 37%
Cc1[nH]c(C(=O)Nc2ccc(C(=O)O)cc2N2CCNCC2)c(Cl)c1Cl.Cl [Compound 20a, 4-(5-Carboxy-2-(3,4-dichloro-5-methyl-1H-pyrrole-2-carboxamido)phenyl)piperazin-1-ium chloride] | > 64 µg/mL | – | > 32 µg/mL | – | > 64 µg/mL | > 32 µg/mL | > 64 µg/mL | > 32 µg/mL | > 32 µg/mL | > 64 µg/mL | > 32 µg/mL | > 64 µg/mL | > 32 µg/mL | – | 106% | remaining activity at 1 µM [5]: 92%; remaining activity at 40 µM [6]: 116%
Cc1[nH]c(C(=O)Nc2ccc(C(=O)O)cc2N2CCC[C@H](N)C2)c(Cl)c1Cl.Cl [Compound 20c, (S)-1-(5-Carboxy-2-(3,4-dichloro-5-methyl-1H-pyrrole-2-carboxamido)phenyl)piperidin-3-aminium chloride] | > 64 µg/mL | – | > 32 µg/mL | 0.134 µM | > 64 µg/mL | > 32 µg/mL | > 64 µg/mL | > 32 µg/mL | > 32 µg/mL | > 64 µg/mL | > 32 µg/mL | > 64 µg/mL | > 32 µg/mL | – | 78% | –
